Measurements: ChEMBL document CHEMBL1129177, “Novel analogs of cyclic-ADP-ribose: 9-Cyclic etheno-ADP-ribose and cyclic etheno-CDP-ribose” (Bioorg Med Chem Lett, 1996)

species on record: Rattus norvegicus; assay: Dose response for [Ca2+] release from rat brain microsomes was determined; format: functional

Which EC50 does the source give for `Nc1c2ncn3c2nc[n+]1[C@@H]1O[C@H](COP(=O)([O-])OP(=O)(O)OC[C@H]2O[C@@H]3[C@H](O)[C@@H]2O)[C@@H](O)[C@H]1O` here?
The EC50 was 22 µM.

How did the EC50 turn out when `O=P1([O-])OC[C@H]2OC([C@H](O)[C@@H]2O)[n+]2ccn3cnc4c(ncn4C4O[C@H](COP(=O)(O)O1)[C@@H](O)[C@H]4O)c32` was run?
The EC50 was 8 µM.

With `O=P(O)(O)O[C@@H]1[C@H](O)[C@H](O)[C@@H](OP(=O)(O)O)[C@H](OP(=O)(O)O)[C@H]1O` [INS(1,4,5)P3] as the compound, how does the EC50 read?
The EC50 was 0.09 µM.
